Experimental data: PubChem BioAssay (NCI)
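Exposure lasted 48 hours, with cells grown in 96-well plates and compounds tested at five concentrations. TGI marks complete inhibition of growth.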

Tests used:
Assay in all cases: inhibition of tumour cell growth, NCI panel, 48 h
[1] = test system: RPMI-8226 leukemia
[2] = test system: MCF7 breast
[3] = test system: TK-10 renal
[4] = test system: NCI-H522 lung
[5] = test system: HS 578T breast
[6] = test system: SK-OV-3 ovarian
[7] = test system: MDA-MB-435
[8] = test system: A549 NSCLC
[9] = test system: SK-MEL-2 melanoma
[10] = test system: M14 melanoma
[11] = test system: COLO 205 colon
[12] = test system: U251 CNS
[13] = test system: OVCAR-4 ovarian
[14] = test system: HOP-92 NSCLC
[15] = test system: IGROV1 ovarian
[16] = test system: SK-MEL-5 melanoma
[17] = test system: HT29 colon
[18] = test system: DU-145 prostate
[19] = test system: SNB-19 CNS
[20] = test system: SF-295 CNS
[21] = test system: MDA-MB-231 breast
[22] = test system: MDA-N
[23] = test system: MOLT-4 leukemia
[24] = test system: SN12C renal
[25] = test system: NCI-H460 lung
[26] = test system: SNB-75 CNS
[27] = test system: ACHN renal
[28] = test system: SR leukemia
[29] = test system: A498 renal
[30] = test system: NCI/ADR-RES ovarian
[31] = test system: EKVX NSCLC
[32] = test system: CAKI-1 renal
[33] = test system: OVCAR-5 ovarian
[34] = test system: HCT-116 colon
[35] = test system: 786-0 renal
[36] = test system: OVCAR-8 ovarian
[37] = test system: UACC-257 melanoma
[38] = test system: HCT-15 colon
[39] = test system: OVCAR-3 ovarian
[40] = test system: SK-MEL-28 melanoma
[41] = test system: T-47D breast
[42] = test system: NCI-H23 lung
[43] = test system: NCI-H226 lung
[44] = test system: LOX IMVI melanoma
[45] = test system: UO-31 renal
[46] = test system: KM12 colon
[47] = test system: SW-620 colon
[48] = test system: RXF 393 renal
[49] = test system: UACC-62 melanoma
[50] = test system: HOP-62 NSCLC
[51] = test system: HCC-2998 colon
[52] = test system: PC-3 prostate
[53] = test system: SF-268 CNS
[54] = test system: SF-539 CNS
[55] = test system: MALME-3M melanoma
[56] = test system: K-562 leukemia
[57] = test system: HL-60(TB) leukemia

Measured: TGI

O=C(NC/C(Cl)=C/Cl)Nc1c2ccccc2nc2ccccc12
80.1 µM: [21]
93.2 µM: [54]
> 100 µM: [1] | [2] | [3] | [4] | [5] | [6] | [7] | [8] | [9] | [10] | [11] | [12] | [13] | [14] | [15] | [16] | [17] | [18] | [19] | [20] | [22] | [23] | [24] | [25] | [26] | [27] | [28] | [29] | [30] | [31] | [32] | [33] | [34] | [35] | [36] | [37] | [38] | [39] | [40] | [41] | [42] | [43] | [44] | [45] | [46] | [47] | [48] | [49] | [50] | [51] | [52] | [53] | [55]

CC(=O)c1c2c(cc3c1CC1(Cc4cc5c(cc4C1)CCCC5)C3)CCCC2
55.7 µM: [37]
72.2 µM: [26]
17.5 µM: [28]
> 100 µM: [3] | [4] | [5] | [6] | [8] | [10] | [11] | [12] | [13] | [14] | [15] | [17] | [20] | [21] | [24] | [29] | [30] | [31] | [33] | [34] | [35] | [36] | [38] | [39] | [41] | [42] | [43] | [44] | [45] | [46] | [48] | [49] | [50] | [51] | [52] | [54] | [55]
22.3 µM: [16]
29.4 µM: [56]
53.1 µM: [7]
81.8 µM: [1]
51.3 µM: [9]
56.5 µM: [22]
38.8 µM: [27]
31.4 µM: [57]
56.9 µM: [2]
38.5 µM: [23]
